Test results reported in US11629141B2, “Proteasome inhibitors and uses thereof” (CORNELL UNIVERSITY, priority 2015, dated 2023).

How the values were obtained:
[1] = molecular target: T1, human constitutive proteasome β5c (Homo sapiens, UniProt P28074); assay: IC50 against chymotryptic β5c activity of human constitutive proteasome (96-well plate, Suc-LLVY-AMC); assay type: biochemical; conditions: for IC50: β5c, substrate Suc-LLVY-AMC, read-out: IC50 Hu c-20S (Suc-LLVY-AMC)
T1 construct: purchased Boston Biochem Inc
Protocol: A 96-well-plate assays were used to determine the IC50s against the chymotryptic β5 activities of the proteasomes. Both human constitutive proteasome and immunoproteasome were purchased from Boston Biochem Inc. 1 μL of 100× compound in DMSO at designated concentrations were spotted at the bottom of the wells. DMSO was used as a control. Final concentrations of the inhibitors were from 100 μM to 0.098 μM. The hydrolysis of the substrate over time in each well was monitored at excitation 360 nm, emission 460 nm for 90 minutes. IC50s were estimated by fitting the velocities of hydrolysis against compound concentrations using PRISM. […] Suc-LLVY-AMC was used for βc at final concentration of 25 μM, and Ac-ANW-AMC for b5i at final concentration of 15 μM. SDS (0.02%) was used as activator, and 0.01% BSA was used in the reaction buffer.
The foregoing features of these AsnEDA encouraged a further round of SAR studies (Table 5) based on varying the carboxylic acid at the ethylenediamine, the N-cap at the Asn, and the side chain of the Asn, based on PKS21004. All compounds listed in the Table 5 were synthesized as described in Examples 6-77. All final compounds were confirmed by NMR and HRMS. IC50s of all compounds against β5i and β5c (Table 5), β1i, β2i, β1c and β2c were determined following a reported method (Lin et al., “N,C-Capped Dipeptides With Selectivity for Mycobacterial Proteasome Over Human Proteasomes: Role of S3 and S1Binding Pockets,” J Am Chem Soc. 135:9968-9971 (2013), which is hereby incorporated by reference in its entirety). […] The [1,1′-biphenyl]-3-carboxamide of PKS21004 was then modified with the following substituents: 4′-fluoro (PKS21026), 4′-cyano (PKS21028), 4-fluoro (PKS21196), 4,3′-difluoro (PKS21195) and 4,2′-difluoro (PKS21187).

Plasmodium falciparum = assay: Growth of Plasmodium falciparum in red blood cells (SYBR Green, 72 hours); assay type: cell-based; conditions: Erythrocyte, P.f. 3D7, growth in red blood cells, read-out: EC50 (nM) (P.f.)
Protocol: Continuous in vitro cultures of Plasmodium falciparum: were maintained in human red blood cells (RBC) diluted to a hematocrit of 5% in RPMI 1640 medium with HEPES and Hypoxanthine and completed with 0.5% Albumax II (Invitrogen), 0.25% sodium bicarbonate, and 0.1 mg/ml gentamicin. Parasites were incubated at 37° C. in a gas mixture of 5% oxygen, 5% carbon dioxide, and 90% nitrogen.
Parasite sensitivity to novel compounds were determined using a SYBR Green (Invitrogen S1046) drug assay protocol. P. falciparum of various clinic stains were cultured with compounds at concentrations in a series of dilution in a clear, sterile 96-well plate for 72 hours. Subsequently, 150 μl of the cultures were transferred to a black 96-well plate and placed in the freezer for red blood cell lysis. The plates were thawed and suspended in a Sybr Green Lysis buffer. GraphPad Prism was used to analyze the raw data collected […]. Drug concentrations were converted to logarithms, normalized, and then curve fitted by non-linear regression to obtain EC50 values.
Plasmodium falciparum: parasites were cultured in human red cells. Drug assays were run in 96 well plates at a total volume of 200 μl. Assays were set up at a starting parasitemia (percent of infected red cells) of 0.5%. Test compounds were plated at concentrations of 2778 nM to 0.4 nM. The test plates were grown under standard low oxygen conditions at 37° C. for 72 hours. At that time the plates were prepared for growth determination, first the plates were frozen and thawed to lyse the red blood cells, 150 μl of the lysed thawed culture was transferred to a black 96 well plate, and mixed in a lysis buffer with SYBR green DNA dye. The fluorescence of each well was recorded in a plate reader with excitation wavelength 490 nm and emission wavelength 530 nm and normalized relative to DMSO control. The EC50s were determined using Prism software.

[2] = molecular target: T2, human immunoproteasome β5i (Homo sapiens, UniProt P28062); assay: IC50 against chymotryptic β5i activity of human immunoproteasome (96-well plate, Ac-ANW-AMC); assay type: biochemical; conditions: for IC50: β5i, substrate Ac-ANW-AMC, read-out: IC50 Hu i-20S (Ac-ANW-AMC)
T2 construct: purchased Boston Biochem Inc
Protocol: A 96-well-plate assays were used to determine the IC50s against the chymotryptic β5 activities of the proteasomes. Both human constitutive proteasome and immunoproteasome were purchased from Boston Biochem Inc. 1 μL of 100× compound in DMSO at designated concentrations were spotted at the bottom of the wells. DMSO was used as a control. […] The hydrolysis of the substrate over time in each well was monitored at excitation 360 nm, emission 460 nm for 90 minutes. IC50s were estimated by fitting the velocities of hydrolysis against compound concentrations using PRISM. […] SDS (0.02%) was used as activator, and 0.01% BSA was used in the reaction buffer.

## CC(CNC(=O)c1cccc(-c2ccccc2)c1)NC(=O)[C@H](CC(=O)NC(C)(C)C)NC(=O)CCc1ccccc1 (mixture of isomers) [PKS21018]
[1]
  IC50: 14.6 µM
Plasmodium falciparum
  EC50: 364 nM
[2]
  IC50: 2350 nM

## CC(C)(C)NC(=O)C[C@H](NC(=O)CCc1ccccc1)C(=O)NCCNC(=O)c1cccc2ccccc12 [PKS3080]
[1]
  IC50: 1.22 µM
Plasmodium falciparum
  EC50: 23 nM
[2]
  IC50: 370 nM

## CC(C)(C)NC(=O)C[C@H](NC(=O)CCc1ccccc1)C(=O)NCCCNC(=O)c1cccc(-c2ccccc2)c1 [PKS21019]
[1]
  IC50: 3.46 µM
Plasmodium falciparum
  EC50: 30 nM
[2]
  IC50: 276 nM

## CC(C)(C)NC(=O)C[C@H](NC(=O)CCc1ccccc1)C(=O)NCCNC(=O)c1ccc2ccccc2c1 [PKS21025]
[1]
  IC50: 3.6 µM
Plasmodium falciparum
  EC50: 320 nM
[2]; relative to PKS3080
  improved potency against β5i: 3 fold
[2]
  selectivity for β5i over β5c: 26 fold
  IC50: 284 nM

## CC(C)(C)NC(=O)C[C@H](NC(=O)CCc1ccccc1)C(=O)NCCNC(=O)c1cccc(-c2ccc(C#N)cc2)c1 [PKS21028]
[1]
  IC50: 7.25 µM
[2]
  IC50: 2060 nM

## CC(C)(C)NC(=O)CC[C@H](NC(=O)CCc1ccccc1)C(=O)NCCNC(=O)c1cccc(-c2ccccc2)c1 [PKS21030]
[1]
  IC50: 0.068 µM
[2]
  IC50: 390 nM

## CC(C)(C)NC(=O)C[C@H](NC(=O)CCc1ccccc1)C(=O)NCCNC(=O)c1cc(-c2ccccc2)ccn1 [PKS21186]
[1]
  IC50: 2.76 µM
[2]
  IC50: 125 nM

## CC(C)(C)NC(=O)C[C@H](NC(=O)CCc1ccccc1)C(=O)NCCNC(=O)c1cc(-c2ccccc2F)ccc1F [PKS21187]
[1]
  IC50: 0.36 µM
[2]
  selectivity for β5i over β5c: ~20 fold
  IC50: 16 nM

## CC(C)(C)NC(=O)C[C@H](NC(=O)CCc1ccccc1)C(=O)NCCNC(=O)c1cc(-c2cccc(F)c2)ccc1F [PKS21195]
[1]
  IC50: 1.94 µM
[2]
  IC50: 59 nM

## CC(C)(C)NC(=O)C[C@H](NC(=O)CCc1ccccc1)C(=O)NCCNC(=O)c1cc(-c2ccccc2)ccc1F [PKS21196]
[1]
  IC50: 0.818 µM
[2]
  IC50: 44 nM

## Cc1cc(C(=O)N[C@@H](CC(=O)NC(C)(C)C)C(=O)NCCNC(=O)c2cc(-c3ccccc3F)ccc2F)no1 [PKS21208]
[1]
  IC50: 1.04 µM
[2]
  IC50: 27 nM

## Cc1cc(C(=O)N[C@@H](CC(=O)NC(C)(C)C)C(=O)NCCNC(=O)c2cc(-c3cccc(F)c3)ccc2F)no1 [PKS21225]
[1]
  IC50: 11.8 µM
[2]
  IC50: 269 nM

## Cc1ccc(S(=O)(=O)N[C@@H](CC(=O)NC(C)(C)C)C(=O)NCCNC(=O)c2cc(-c3cccc(F)c3)ccc2F)cc1 [PKS21228]
[1]
  IC50: 0.42 µM
[2]
  IC50: 12 nM

## Cc1cc(C(=O)N[C@@H](CC(=O)NC(C)(C)C)C(=O)NCCNC(=O)c2ccccn2)no1 [PKS21250]
[1]
  IC50: > 100 µM
[2]
  IC50: 65600 nM

## Cc1cc(C(=O)N[C@@H](CC(=O)NC(C)(C)C)C(=O)NCCNC(=O)c2ccccc2F)no1 [PKS21251]
[1]
  IC50: 39 µM
[2]
  IC50: 6340 nM

## CC(C)(C)NC(=O)C[C@H](NC(=O)CCc1ccc(F)cc1)C(=O)NCCNC(=O)c1ccccn1 [PKS21254]
[1]
  IC50: 57.4 µM
[2]
  IC50: 7770 nM

## CC(C)(C)NC(=O)C[C@H](NC(=O)CCc1ccc(F)cc1)C(=O)NCCNC(=O)c1ccccc1F [PKS21255]
[1]
  IC50: 3.64 µM
[2]
  IC50: 740 nM

## CC(C)(C)NC(=O)C[C@H](NC(=O)CCc1ccc(F)cc1)C(=O)NCCNC(=O)c1cccc2cccnc12 [PKS21258]
[1]
  IC50: 22.7 µM
[2]
  IC50: 2410 nM

## CC(C)(C)NC(=O)C[C@H](NC(=O)CCc1ccc(F)cc1)C(=O)NCCNC(=O)c1ccc(F)c2ccccc12 [PKS21259]
[1]
  IC50: 2.24 µM
[2]
  IC50: 158 nM

## CC(C)(C)OC(=O)NCC(=O)NCCNC(=O)c1cc(-c2ccccc2F)ccc1F [PKS21276]
[1]
  inhibitory activity against β5c (in words): abolished the inhibitory activities
  IC50: > 100 µM
[2]
  inhibitory activity against β5i (in words): abolished the inhibitory activities
  IC50: 24300 nM

## CC(C)(C)NC(=O)C[C@H](NC(=O)OC(C)(C)C)C(=O)NCCNC(=O)c1cc(-c2ccccc2F)ccc1F [PKS21277]
[1]
  IC50: 3.65 µM
[2]
  inhibitory activity against β5i (in words): modestly potent
  selectivity for β5i over β5c: 36 fold
  IC50: 112 nM

## O=C(CCc1ccc(F)cc1)N[C@@H](CC(=O)NC1(C(F)(F)F)CC1)C(=O)NCCNC(=O)c1cccc(-c2ccccc2)c1 [PKS21278]
[1]
  IC50: 0.165 µM
[2]
  IC50: 80 nM

## O=C(CCc1ccc(F)cc1)N[C@@H](CC(=O)NC1(C(F)(F)F)CC1)C(=O)NCCNC(=O)c1cc(-c2ccccc2F)ccc1F [PKS21279]
[1]
  IC50: 0.114 µM
[2]
  IC50: 37 nM

## C[C@H](NC(=O)OC(C)(C)C)C(=O)NCCNC(=O)c1cc(-c2ccccc2F)ccc1F [PKS21280]
[1]
  inhibitory activity against β5c (in words): abolished the inhibitory activities
  IC50: > 100 µM
[2]
  inhibitory activity against β5i (in words): abolished the inhibitory activities
  IC50: 33200 nM

## CC(C)(C)OC(=O)N[C@@H](CC(N)=O)C(=O)NCCNC(=O)c1cc(-c2ccccc2F)ccc1F [PKS21281]
[1]
  inhibitory activity against β5c (in words): abolished the inhibitory activities
  IC50: > 100 µM
[2]
  inhibitory activity against β5i (in words): abolished the inhibitory activities
  IC50: > 100000 nM

## Cc1ccc(S(=O)(=O)N[C@@H](CC(=O)NC(C)(C)C)C(=O)NCCNC(=O)c2cccc(-c3cc[nH]n3)c2)cc1 [PKS21282]
[1]
  IC50: 1.29 µM
[2]
  IC50: 69 nM

## CC(C)(C)NC(=O)C[C@H](N)C(=O)NCCNC(=O)c1cc(-c2ccccc2F)ccc1F [PKS21284]
[1]
  IC50: 3.09 µM
[2]
  IC50: 626 nM

## Cc1ccc(S(=O)(=O)N[C@@H](CC(N)=O)C(=O)NCCNC(=O)c2cc(-c3ccccc3F)ccc2F)cc1 [PKS21288]
[1]
  inhibitory activity against β5c (in words): eliminated inhibitory activity
  IC50: > 100 µM
[2]
  inhibitory activity against β5i (in words): eliminated inhibitory activity
  IC50: 4140 nM

## Cc1ccc(S(=O)(=O)NCC(=O)NCCNC(=O)c2cc(-c3ccccc3F)ccc2F)cc1 [PKS21289]
[1]
  inhibitory activity against β5c (in words): eliminated inhibitory activity
  IC50: 60.8 µM
[2]
  inhibitory activity against β5i (in words): eliminated inhibitory activity
  IC50: 40300 nM

## Cc1ccc(S(=O)(=O)N[C@@H](C)C(=O)NCCNC(=O)c2cc(-c3ccccc3F)ccc2F)cc1 [PKS21290]
[1]
  inhibitory activity against β5c (in words): eliminated inhibitory activity
  IC50: > 100 µM
[2]
  inhibitory activity against β5i (in words): eliminated inhibitory activity
  IC50: > 100000 nM

## CC(C)(C)NC(=O)C[C@H](NS(=O)(=O)C1CC1)C(=O)NCCNC(=O)c1cc(-c2ccccc2F)ccc1F [PKS21293]
[1]
  IC50: 0.96 µM
[2]
  IC50: 15 nM

## CC(=O)N[C@@H](CC(=O)NC(C)(C)C)C(=O)NCCNC(=O)c1cc(-c2ccccc2F)ccc1F [PKS21294]
[1]
  IC50: 13.3 µM
[2]
  IC50: 620 nM

## Cc1ccc(S(=O)(=O)N[C@@H](CC(=O)NC(C)(C)C)C(=O)NCCNC(=O)c2cccc(N3CCNC3=O)c2)cc1 [PKS21295]
[1]
  IC50: 2.39 µM
[2]
  IC50: 129 nM

## Cc1cc(C(=O)N[C@@H](CC(=O)NC(C)(C)C)C(=O)NCCNC(=O)c2cccc(-n3cccn3)c2)no1 [TDI4258]
Plasmodium falciparum
  EC50: 29 nM
